Reference: patent US10335482B2, “Method of inducing an anti-HIV-1 immune response comprising administering a C5/TM-GP41 peptide dimer” (priority 2012, dated 2019)
Bridge positions count the residues as written; N and C are the ends. Ends that are not written are not given here. I, II: the chains in the order shown.

Key:
[1] = Toxicity of the dipeptide in mice; assay type: in vivo, NMFI female mice; conditions: injection, 100 μg per kg bodyweight, 4 mg/ml in 0.9% NaCl
Experimental: The dipeptide of Example 20 was diluted in 0.9% NaCl to a test solution concentration of 4 mg/ml. The peptide was administered by injection to NMFI female mice in a dose of 100 μg per kg bodyweight.

[2] = system: Anti-C5/gp41 sera from BI400-B immunized rabbits; test: Competitive ELISA for rabbit sera after immunization with BI400-B; assay type: binding; conditions: antigen 10-1000 μM preincubated with rabbit serum; FIG. 3
Experimental: 50-100 μl of a mixture of BI400-015 and -201 (pre-incubated in Coating buffer—0.05M Na2CO3 pH9.6; denoted CB—in cold at 16 μg/ml for each peptide 1-3 days prior to coating) or just CB (background control) was used for coating wells in microtiter plates at 4° C. overnight. Plates were then washed 3× with washing buffer (PBS+1% v/v Triton-X100; denoted WB), followed by 2 h blocking at room temperature (RT) with 200 μl/well of blocking buffer (PBS+1% w/v BSA). Plates were then washed 3× with WB, followed by 1 h incubation at 37° C. with 60-100 μl/well of added rabbit serum samples (diluted 1:10-1:250 final concentration) preincubated together (4° C. overnight) with serial dilutions (ranging from 10-1000 μM final concentration) of 400-SEQ.B, BI400-015, BI400-201, BI400-204d, recombinant gp41 (Shin-Won Scientific, SWO 102 gp41), BI301-23 (irrelevant protein; control), no peptide (i.e. PBS; control), LTNP-sera pools (diluted 1:10 final concentration), or Blood donor sera-pools (diluted 1:10 final concentration; control). Plates were then washed 6× with WB, followed by 1 h incubation at RT with 70 μl/well of Alkaline Phosphatase-conjugated Goat-anti-Rabbit-Ig (6 μg/ml; Dako D0487). […] Plates were finally quenched by adding 100 μl/well of Quench solution (0.1M TRIS+0.1M EDTA+0.5M NaOH+0.01% w/v NaN3; pH14), followed by ELISA reader (ASYS UVM 340) at 550 nm.

HIV specific T-cells = conditions: IMiD present during stimulation with dendritic cells presenting Gag- or Nef-specific peptides; cited from earlier work

| Molecule | inhibition of antibody binding to C5/gp41 (015/201) by antigen [2] | function of the T-cells (HIV specific T-cells) | also measured |
| --- | --- | --- | --- |
| I: WIIPGLNPLVGGGKLYSPTSILCG-NH2 / II: KALGPGATLQTPWTACQGVG-NH2 (disulfide I:23-II:16) [Example 20] |  |  | toxicological effects [1]: No toxicological effects were observed |
| GGAIVNGSLADDDIVI [204d, peptide derived from C2] | could be inhibited |  |  |
| 201: gp41 peptide (DRPEGIEEEGGERDR) [compound 201] | could be inhibited |  |  |
| Nc1cccc2c1C(=O)N(C1CCC(=O)NC1=O)C2=O (centres unmarked) [pomalidomide] |  | a number of improvements in the function of the T-cells |  |
| Nc1cccc2c1CN(C1CCC(=O)NC1=O)C2=O (centres unmarked) [Lenalidomide] |  | a number of improvements in the function of the T-cells |  |
